These results are taken from article PMC10865806, “Structural insights into the molecular mechanism of high-level ceftazidime–avibactam resistance conferred by CMY-185” (mBio, 2024).

SMILES strings stand for the structures. Values after ≈ are worked out from the molar mass of the structure shown.

One test has as its system CMY-178. The settings on record: cited from earlier work.
A further test relates to other β-lactamases. Set-up: method as in PMID 30188999, PMID 27736756. The settings on record: cited from earlier work.
The test system of the next test is AmpC^Ent385. On the set-up: method as in PMID 32284381. To be noted: lowest Km reported to date; cited from earlier work.
The test system of the next test is CMY-172. The settings on record: cited from earlier work.
The target of test [1] is T1, CMY-2 variant A114E_N346Y (Klebsiella pneumoniae, UniProt Q48434, A134E/N366Y).
T1 construct: all CMY-2 variant genes encoding the mature enzyme without a signal peptide were cloned into the protein expression plasmid vector pET-30b; made in house; host or cells: E. coli BL21 (DE3), pET-30b
In words: Competitive inhibition of cephalothin hydrolysis and avibactam inhibition kinetics. It is filed as biochemical, Escherichia coli. To be noted: reporter substrate cephalothin 100 µM, Dixon plot, read-out: Ki app. The text has this: (§1) We tested the enzymes, CMY-2, two single mutants V211S (CMY-42) and N346Y, three double mutants A114E_N346Y, Q120K_N346Y, and V211S_N346Y, and the quadruplet mutant CMY-185 to elucidate the impact on the kinetic properties resulting from the four amino acid substitutions present in CMY-185 compared with CMY-2 ([8]). The steady-state kinetic parameters kcat and Km (or Ki app) for nitrocefin, cephalothin, ceftazidime, and cefiderocol and the inhibition parameters Ki app, k2/K, k−2, and koff for avibactam are summarized in Table 1. During the hydrolysis of nitrocefin, we observed the reduction of the initial velocity at concentrations above 50 µM particularly for the CMY-2 variants harboring the N346Y substitution. As this could have represented substrate inhibition, we then determined the kinetics parameters for nitrocefin using the Haldane equation ([16]). […] In addition, during the hydrolysis of cefiderocol by CMY-185, the initial velocities at a concentration range of 3.7–59.4 µM were similar.
(§2) The steady-state kinetics were carried out on a UV-Visible spectrometer (UV-1280, Shimadzu, Japan) in PBS pH 7.2 at 25°C with a constant amount of enzyme and varying concentrations of the substrates. We tested nitrocefin, cephalothin, ceftazidime, and cefiderocol as the substrates and avibactam as the inhibitor. The steady-state kinetics parameters Km and kcat were determined with the Michaelis-Menten equation. For poorly hydrolyzed substrates, the Km value was assumed to be the competitive inhibition constant (Ki app) value according to previous studies ([17], [19]). Inhibition parameter values of Ki app, k2/K, k−2, and koff for avibactam were determined using a method as described previously ([33]). Cephalothin was used as the reporter substrate for competitive inhibition experiments, and its concentration was fixed at 100 µM. The enzyme concentration was 1–10 nM. Inverse steady-state initial velocities were plotted against the concentration of the competitive inhibitor agents, such as ceftazidime, cefiderocol, and avibactam. The data were analyzed by linear regression analysis of the Dixon plot, and Ki app (observed) was determined by dividing the y-intercept value by the slope of the line. It was then corrected to account for the affinity of cephalothin for each enzyme using the Equation (1):
(§3) (1) Ki app=Ki app (observed)/{1+[S]/Km (cephalothin)}
(§4) where [S] represents the concentration of the reporter substrate cephalothin, and Km (cephalothin) is the Km value of cephalothin for each enzyme.
(§5) The koff value was determined using a jump dilution assay. The enzyme and avibactam were mixed and preincubated at 25°C for 5 min. The concentration of avibactam depended on the enzyme and concentrations 10-fold higher from each Ki app (observed) value were adopted, which were determined based on the corrected competitive inhibition constants Ki app. Preincubated enzyme-avibactam mixture was then diluted 2,000-fold in the 100 µM cephalothin solution, and the hydrolysis of cephalothin was measured. Three independent measurements were performed for each enzyme and substrate or inhibitor combination. Curve fittings using linear or non-linear regression were performed with R 4.1.3 (R Core Team, 2022).

In test [2] the target is T2, CMY-2 variant N346Y (Klebsiella pneumoniae, UniProt Q48434, N366Y).
T2 construct: all CMY-2 variant genes encoding the mature enzyme without a signal peptide were cloned into the protein expression plasmid vector pET-30b; made in house; host or cells: E. coli BL21 (DE3), pET-30b
The description is as above. It is filed as biochemical, Escherichia coli. To be noted: N346Y; reporter substrate cephalothin 100 µM, Dixon plot; read-out: Ki app.
Source text: as §1, §2, §3, §4, §5

Another test concerns the target T3, CMY-185 (Klebsiella pneumoniae, UniProt Q48434, A134E/N366Y/Q140K/V231S).
T3 construct: all CMY-2 variant genes encoding the mature enzyme without a signal peptide were cloned into the protein expression plasmid vector pET-30b; made in house; host or cells: E. coli BL21 (DE3), pET-30b
The description is as above. It is filed as biochemical, Escherichia coli. To be noted: CMY-185; reporter substrate cephalothin 100 µM, Dixon plot; read-out: Ki app.
Source text: as §1, §2, §3, §4, §5

In test [3] the target is T4, CMY-2 (Klebsiella pneumoniae, UniProt Q48434).
T4 construct: all CMY-2 variant genes encoding the mature enzyme without a signal peptide were cloned into the protein expression plasmid vector pET-30b; made in house; host or cells: E. coli BL21 (DE3), pET-30b
The test is described as above. Type of test: biochemical, Escherichia coli.
Source text: as §1, §2, §3, §4, §5

For test [4], the target named is T5, CMY-2 variant Q120K_N346Y (Klebsiella pneumoniae, UniProt Q48434, N366Y/Q140K).
T5 construct: all CMY-2 variant genes encoding the mature enzyme without a signal peptide were cloned into the protein expression plasmid vector pET-30b; made in house; host or cells: E. coli BL21 (DE3), pET-30b
Described as above. To be noted: Q120K_N346Y; reporter substrate cephalothin 100 µM, Dixon plot; read-out: Ki app. Type of test: biochemical, Escherichia coli.
Source text: as §1, §2, §3, §4, §5

The target in test [5] is T1, CMY-2 variant A114E_N346Y. The experiment in a line: Steady-state hydrolysis kinetics. Type of test: biochemical, Escherichia coli. To be noted: substrate 100 µM, 100–200 nM enzyme.
Source text: as §1
as §2, with “The enzyme concentration was 1–10 nM.” left out, “(1): […]” for “(1):”

In test [6] the target is T2, CMY-2 variant N346Y. The experiment in a line: Steady-state hydrolysis kinetics. The settings on record: substrate 100 µM, 100–200 nM enzyme. It is filed as biochemical, Escherichia coli.
Source text: as §1
as §2, with “The enzyme concentration was 1–10 nM.” left out, “(1): […]” for “(1):”

Test [7] deals with T4, CMY-2. The experiment in a line: Steady-state hydrolysis kinetics. Type of test: biochemical, Escherichia coli. The settings on record: substrate 100 µM, 100–200 nM enzyme.
Source text: as §1
as §2, with “The enzyme concentration was 1–10 nM.” left out, “(1): […]” for “(1):”

Regarding `CC(C)(O/N=C(\C(=O)N[C@@H]1C(=O)N2C(C(=O)[O-])=C(C[N+]3(CCNC(=O)c4ccc(O)c(O)c4Cl)CCCC3)CS[C@H]12)c1csc(N)n1)C(=O)O` [Cefiderocol, cefiderocol], the MIC in the test on CMY-178 and with CMY-172 was 1 µg/mL (≈ 1.33 µM) each time. The Km in the test on other β-lactamases is above 190 µM; in the test on AmpC^Ent385, 49.8 µM. Also, the Ki in test [1] is 400 nM; at CMY-2 variant N346Y [2], 700 nM; at CMY-185, 200 nM; at CMY-2 [3] (reporter substrate cephalothin 100 µM, Dixon plot, read-out: Ki app), 8000 ± 1300 nM; in test [4] it was 400 nM. Besides, the “fold higher Ki app” value on CMY-2 [3] (cefiderocol compared with ceftazidime) was 10 fold. Also, the hydrolysis entry (in [5]; at CMY-2 variant N346Y [6]; on CMY-2 [7]) was “no apparent hydrolysis” each time.
